Results as given in publication PMC8294944 (Journal of agricultural and food chemistry, 2020).
Where two headings read alike, the source gives them in different places.

Assays:
[1] = molecular target: T1, ERα (Ishikawa endometrial carcinoma cells) (Homo sapiens, UniProt P03372); details: read-out: ERα EC50 (LigF); compared with 8-PA; cited from earlier work
T1 sequence (P03372 1-595): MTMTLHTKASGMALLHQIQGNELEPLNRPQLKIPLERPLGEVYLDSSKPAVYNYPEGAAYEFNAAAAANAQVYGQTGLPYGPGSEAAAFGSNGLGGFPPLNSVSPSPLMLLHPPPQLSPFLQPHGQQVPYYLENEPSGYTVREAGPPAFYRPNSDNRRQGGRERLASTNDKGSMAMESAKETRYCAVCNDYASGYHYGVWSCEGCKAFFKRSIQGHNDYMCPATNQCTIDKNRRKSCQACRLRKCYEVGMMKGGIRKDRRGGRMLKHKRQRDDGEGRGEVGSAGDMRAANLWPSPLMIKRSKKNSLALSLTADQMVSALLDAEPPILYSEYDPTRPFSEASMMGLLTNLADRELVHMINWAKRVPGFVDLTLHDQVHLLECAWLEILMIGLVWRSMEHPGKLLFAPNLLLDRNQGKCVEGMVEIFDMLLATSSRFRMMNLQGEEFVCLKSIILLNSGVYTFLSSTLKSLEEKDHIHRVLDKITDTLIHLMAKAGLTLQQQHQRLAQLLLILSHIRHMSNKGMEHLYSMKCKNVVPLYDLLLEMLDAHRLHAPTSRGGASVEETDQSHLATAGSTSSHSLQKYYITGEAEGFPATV

[2] = molecular target: T1, ERα (Ishikawa endometrial carcinoma cells); test: Estrogen-responsive alkaline phosphatase assay in ERα positive Ishikawa cells; format: cell-based; details: for Emax: Ishikawa, read-out: ERα Maximum efficacy
[3] = molecular target: purified full length human recombinant ERβ (Homo sapiens, UniProt Q92731); test: ERβ competitive binding assay
Sequence of purified full length human recombinant ERβ (Q92731 whole entry): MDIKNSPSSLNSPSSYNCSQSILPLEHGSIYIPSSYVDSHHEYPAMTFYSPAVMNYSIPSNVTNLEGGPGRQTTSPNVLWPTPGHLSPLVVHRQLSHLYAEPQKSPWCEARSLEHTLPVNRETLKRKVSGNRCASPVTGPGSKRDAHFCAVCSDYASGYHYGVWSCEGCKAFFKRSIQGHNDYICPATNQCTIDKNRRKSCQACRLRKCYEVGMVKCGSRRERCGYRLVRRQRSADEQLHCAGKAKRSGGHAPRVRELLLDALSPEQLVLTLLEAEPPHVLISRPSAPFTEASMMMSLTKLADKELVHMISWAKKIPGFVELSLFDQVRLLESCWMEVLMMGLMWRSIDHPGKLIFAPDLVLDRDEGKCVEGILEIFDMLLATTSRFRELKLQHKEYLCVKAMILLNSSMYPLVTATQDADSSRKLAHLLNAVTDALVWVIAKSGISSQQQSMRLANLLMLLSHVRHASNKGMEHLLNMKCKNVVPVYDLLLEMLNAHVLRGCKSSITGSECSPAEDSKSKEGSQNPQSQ

[4] = molecular target: T2, purified full length human recombinant ERα (Homo sapiens, UniProt P03372); test: ERα competitive binding assay
T2 sequence (P03372 1-595): T1 sequence (P03372 1-595)

uterine tissue = details: 8-PN in dietary concentrations; cited from earlier work
[5] = alkaline phosphatase, Ishikawa cells, mean ± SEM
[6] = read-out: ERα EC50 (compounds), alkaline phosphatase, Ishikawa cells, mean ± SEM
[7] = relative to 17β-E2, [3H]-E2 tracer 20 nM

## O=C1C[C@@H](c2ccc(O)cc2)Oc2cc(O)ccc21 [LigF, liquiritigenin]
[1]
  EC50: 3400 nM

## O=C1C[C@@H](c2ccc(O)cc2)Oc2cc(O)cc(O)c21 [NRG, naringenin]
[2]
  EC50: 3700 ± 500 nM
  Emax: 69 ± 6%
[3]
  ERβ % RBA (relative binding affinity = IC50 E2/IC50 (iso)flavonoid x100): 0.05%
[4]
  ERα % RBA (relative binding affinity = IC50 E2/IC50 (iso)flavonoid x100): <0.002%

## CC(C)=CCc1c(O)cc(O)c2c1O[C@H](c1ccc(O)cc1)CC2=O [8-PN, 8-Prenylnaringenin]
Uterine tissue
  Effect on uterine weight: increased uterine weight

## Dehydrogenistein [DGN]
[2]; [5]
  ERα Maximum efficacy: 84 ± 4.0
[2]; [6]
  EC50: 800 ± 100 nM
[3]; [7]
  ERβ % RBA (relative binding affinity = IC50 E2/IC50 (iso)flavonoid x100): 14%
[4]; [7]
  ERα % RBA (relative binding affinity = IC50 E2/IC50 (iso)flavonoid x100): <0.002%

## CC(C)=CCc1c(O)cc(O)c2c(=O)c(O)c(-c3ccc(O)cc3)oc12 [DMI, Desmethylicaritin]
[2]; [5]
  ERα Maximum efficacy: 67 ± 12
[2]; [6]
  EC50: 200 ± 20 nM

## CC(C)=CCc1c(O)cc(O)c2c(=O)c(-c3ccc(O)cc3)coc12 [8-PG, 8-Prenylgenistein]
[2]
  EC50: 500 ± 200 nM
  Emax: 49 ± 10%
[3]; [7]
  ERβ % RBA (relative binding affinity = IC50 E2/IC50 (iso)flavonoid x100): 0.9%
[4]; [7]
  ERα % RBA (relative binding affinity = IC50 E2/IC50 (iso)flavonoid x100): <0.002%
